Literature values, collected in US12539323B2, “Anti-psychotic composition and treatment methods” (priority 2017, dated 2026).

Test system: symptoms of schizophrenia
Settings: pooled meta-analysis of celecoxib and aspirin, eight studies

CC(=O)Oc1ccccc1C(=O)O [aspirin]
Effect on negative symptoms of schizophrenia: no benefit
Hedges' g, positive symptoms: −0.189
Hedges' g, total symptoms (trend level): −0.236
